Measurements reported in US20250188102A1, “TRIAZINE COMPOUND, INTERMEDIATE THEREOF, PREPARATION METHOD THEREFOR AND USE THEREOF” (priority 2022, published 2025).
Like-named read-outs stand apart in the source and are kept apart here.

Assays:
SARS-CoV-2 = conditions: read-out: viral inhibitory activity EC50, cited from earlier work
in vitro [1] = type: cell-based; conditions: human; HIHeLa, 3 days; read-out: CC50
Procedure: (§1) Nine cell lines originated from different human tissues (Table 2) are selected to evaluate the cytotoxicity of the tested compounds. Sorafenib or Taxol are used as cytotoxic control compounds. The cells and compounds are added to the 96-well test plate. Cells are cultured in culture medium containing 10% FBS, 5% CO2 and 37° C. for 3 days, and then cell viability was detected by CellTiter-Glo reagent. The raw data are used for compound cytotoxicity calculations. The dose-response curves of the compounds are analyzed by GraphPad Prism software and CC50 values are calculated. The compound will be tested at 8 concentration points, 3-fold series dilution, and 3-compound pores.

in vitro [2] = type: cell-based; conditions: human; A375, 3 days; read-out: CC50
Procedure: as §1

in vitro [3] = type: cell-based; conditions: human; HEp2, 3 days; read-out: CC50
Procedure: as §1

in vitro [4] = type: cell-based; conditions: human; CCRF-CEM, 3 days; read-out: CC50
Procedure: as §1

in vitro [5] = type: cell-based; conditions: human; Molt-4, 3 days; read-out: CC50
Procedure: as §1

in vitro [6] = conditions: human
in vitro [7] = type: cell-based; conditions: human; HEK293, 3 days; read-out: CC50
Procedure: as §1

SARS-CoV-2 strain = experiment: microbe, parasite or virus in culture; conditions: Severe acute respiratory syndrome coronavirus 2, read-out: EC50 of SARS-CoV-2 strain
in vitro [8] = type: cell-based; conditions: human; MRC-5, 3 days; read-out: CC50
Procedure: as §1

in vitro [9] = type: cell-based; conditions: human; Colo-205, 3 days; read-out: CC50
Procedure: as §1

in vivo = conditions: male, Sprague-Dawley, rat, po, 5 mg/kg
in vitro [10] = type: cell-based; conditions: human; HepG2, 3 days; read-out: CC50
Procedure: as §1

[11] = PO
[12] = liver microsomes; rat
in vitro [13] = conditions: rat, microsomes

Q: For `CC(C)(C)[C@H](NC(=O)C(F)(F)F)C(=O)N1C[C@H]2[C@@H]([C@H]1C(=O)N[C@H](C#N)C[C@@H]1CCNC1=O)C2(C)C` [PF-07321332], which EC50 (SARS-CoV-2; A549 cells expressing ACE2 protein) is on record?
A: 56 nM

Q: And the EC50 (SARS-CoV-2; HeLa cells expressing ACE2 protein)?
A: 99 nM

Q: What about the EC50 (SARS-CoV-2; human airway epithelial cells) of the same compound?
A: 62 nM

Q: With `CC(=O)O[C@H]1C(=O)[C@@]2(C)[C@H]([C@H](OC(=O)c3ccccc3)[C@]3(O)C[C@H](OC(=O)[C@H](O)[C@@H](NC(=O)c4ccccc4)c4ccccc4)C(C)=C1C3(C)C)[C@]1(OC(C)=O)CO[C@@H]1C[C@@H]2O` [Pacitaxel] as the compound, how does the CC50 (in vitro [1]) read?
A: 20 nM

Q: What about the CC50 (in vitro [2]) of the same compound?
A: 8.9 nM

Q: What about the CC50 (in vitro [3]) of the same compound?
A: 30 nM

Q: And the CC50 (in vitro [4])?
A: 3.4 nM

Q: And the CC50 (in vitro [5])?
A: 2.7 nM

Q: Which CC50 (Huh7 cells) does the source give for `CCC(CC)COC(=O)[C@H](C)N[P@](=O)(OC[C@H]1O[C@@](C#N)(c2ccc3c(N)ncnn23)[C@H](O)[C@@H]1O)Oc1ccccc1` [Remdesivir] here?
A: >1 microns

Q: With `C=C(C)[C@H]1Cc2c(ccc3c2O[C@@H]2COc4cc(OC)c(OC)cc4[C@@H]2C3=O)O1` [Rotenone, reference compound] as the compound, how does the “ratio (CC50 Glu/CC50 Gal)” value (HepG2 cells; human) read?
A: 91.7

Q: And the CC50 (in vitro [6]; galactose culture HepG2 CC50)?
A: 30 nM

Q: What about the CC50 (in vitro [6]; glucose culture HepG2 CC50) of the same compound?
A: 2330 nM

Q: For `O=C(O)/C=C/C(=O)O.[2H]C([2H])([2H])n1cnc(Cn2c(=O)[nH]/c(=N\c3cc4cn(C)nc4cc3Cl)n(Cc3cc(F)c(F)cc3F)c2=O)n1` [SHEN211], which CC50 (in vitro [1]) is on record?
A: > 100000 nM

Q: And the CC50 (in vitro [7])?
A: > 100000 nM

Q: What about the “mitochondrial toxicity to human HepG2 cells” value (HepG2 cells) of the same compound?
A: more than 200 μM

Q: And the “difference between the CC50 and EC50” value (HepG2 cells; human)?
A: more than 476 times

Q: What about the EC50 (SARS-CoV-2 strain) of the same compound?
A: 84 to 210 nM

Q: What about the CC50 (in vitro [8]) of the same compound?
A: > 100000 nM

Q: And the CC50 (Huh7 cells)?
A: >1 microns

Q: And the CC50 (in vitro [2])?
A: > 100000 nM

Q: What about the CC50 (in vitro [3]) of the same compound?
A: > 100000 nM

Q: What about the CC50 (in vitro [4]) of the same compound?
A: > 100000 nM

Q: And the CC50 (in vitro [9])?
A: > 100000 nM

Q: And the AUC(0-inf) (in vivo; AUC0-∞, SD rat)?
A: 45500 ng·h/mL

Q: And the Cmax (in vivo; Cmax, SD rat)?
A: 4710 ng/mL

Q: What about the half-life (in vivo; T1/2) of the same compound?
A: 3.22 h

Q: And the Tmax (in vivo; Tmax, SD rat)?
A: 2 h

Q: What about the CC50 (in vitro [10]) of the same compound?
A: > 100000 nM

Q: And the CC50 (in vitro [5])?
A: > 100000 nM

Q: What about the CC50 (in vitro [6]; galactose culture HepG2 CC50) of the same compound?
A: 206000 nM

Q: What about the CC50 (in vitro [6]; glucose culture HepG2 CC50) of the same compound?
A: 202000 nM

Q: Which “AUC0-∞” value ([11]; SD rat, 5.0 mg/kg) does the source give for `[2H]C([2H])([2H])n1cnc(Cn2c(=O)[nH]/c(=N\c3cc4cn(C)nc4cc3Cl)n(Cc3cc(F)c(F)cc3F)c2=O)n1` [SHEN212] here?
A: 62126.14 ng·h/mL

Q: And the Tmax ([11]; SD rat, 5.0 mg/kg)?
A: 3.67 h

Q: And the “AUC compared with S-217 fumaric acid eutectic group” value ([11]; rat)?
A: 115%

Q: And the “AUC compared with S-217622 fumaric acid coproduct combined with niacinamide group” value ([11]; rat)?
A: 124%

Q: And the “Cmax compared with S-217 fumaric acid eutectic group” value ([11]; rat)?
A: 132%

Q: What about the “Cmax compared with S-217622 fumaric acid coproduct combined with niacinamide group” value ([11]; rat) of the same compound?
A: 123%

Q: And the “T1/2 compared with S-217622 fumaric acid coproduct combined with niacinamide group” value ([11]; rat)?
A: 121%

Q: What does the source list for `CNC(=O)c1cc(Oc2ccc(NC(=O)Nc3ccc(Cl)c(C(F)(F)F)c3)cc2)ccn1` [Sorafenib]?
A: CC50 (in vitro [7]): 5580 nM; CC50 (in vitro [8]): 13800 nM; CC50 (in vitro [9]): 8720 nM; CC50 (in vitro [10]): 5320 nM

Q: With `C[C@]12CC[C@H]3[C@@H](CCC4=CC(=O)CC[C@@]43C)[C@@H]1CC[C@@H]2O` [Testosterone] as the compound, how does the Cl [12] read?
A: 3.28 L/h/kg

Q: What about the Cla [12] of the same compound?
A: 6112.8 µL/min/mg

Q: What about the Clape [12] of the same compound?
A: 660.186 L/h/kg

Q: And the half-life (in vitro [13])?
A: 36 s
